Assay results taken from US20240327375A1, “SUBSTITUTED HETEROBICYCLIC DERIVATIVES AS NEGATIVE ALLOSTERIC MODULATORS OF MGLU7 RECEPTOR” (priority 2021, published 2024).
Where a name gives a salt, the structure may show the parent alone.

target: T1, human mGlu7 (Homo sapiens, UniProt Q14831); test: mGlu7 assay on HEK-expressing human mGlu7: fluorescent cell-based Ca2+ mobilization (FLIPR384), inhibition of EC80 L-AP4 response; details: HEK-293 cells expressing hmGlu7, EC80 L-AP4 stimulation; mean of at least three independent experiments in duplicate; read-out: Ca^2+ Flux (mean IC50)
T1 construct: expressed in transfected cells
From the text: mGlu7 Assay on HEK-Expressing Human mGlu7
The cDNA encoding the human metabotropic glutamate 7 receptor (hmGlu7), (accession number NM_181874.2, NCBI Nucleotide database browser), was subcloned into an expression vector containing also the hygromycin resistance gene. In parallel, the cDNA encoding a G protein allowing redirection of the activation signal to intracellular calcium flux was subcloned into a different expression vector containing also the Puromycin resistance gene. Transfection of both these vectors into HEK293 cells with PolyFect reagent (Qiagen) according to supplier's protocol, and hygromycin and puromycin treatment allowed selection of antibiotic resistant cells which had integrated stably one or more copies of the plasmids. Positive cellular clones expressing hmGlu7 were identified in a functional assay measuring changes in calcium fluxes in response to glutamate and L-AP4 or known mGlu7 orthosteric antagonists.
HEK-293 cells expressing hmGlu7 were maintained in media containing DMEM, Fetal Bovine Serum (10%), Glutamax™ (2 mM), penicillin (100 units/mL), streptomycin (100 μg/mL), geneticin (100 μg/mL) and hygromycin-B (40 μg/mL) and puromycin (1 μg/mL) at 37° C. with 5% CO2 in a humidified atmosphere.
Fluorescent Cell Based- Ca^+ Mobilization Assay Human mGlu7 HEK-293 cells were plated out 24 hours prior to a fluorescent cell-based calcium mobilization assay using FLIPR^384 assay (Molecular Device, Sunnyvale, CA, USA) in black-walled, clear-bottomed, poly-L-ornithine-coated 384-well plates at a density of 25,000 cells/well in a glutamine/glutamate free DMEM medium containing fetal bovine serum (10%), penicillin (100 units/mL), streptomycin (100 μg/mL) and doxycyline (1 μg/ml) at 37° C. with 5% CO2 in a humidified atmosphere.
On the day of the assay, the medium was aspirated and the cells were loaded with a 3 μM solution of Fluo4-AM (LuBioScience, Lucerne, Switzerland) in 0.03% pluronic acid. After 1 hour at 37° C./5% CO2, the non incorporated dye was removed by washing cell plate with the assay buffer. All assays were performed in a pH 7.4 buffered-solution containing 20 mM HEPES, 143 mM NaCl, 6 mM KCl, 1 mM MgSO4, 1 mM CaCl2, 0.125 mM sulfinpyrazone and 0.1% glucose.
After 10 s of basal fluorescence recording, various concentrations of the compounds of the invention were added to the cells. Changes in fluorescence levels were first monitored for 180 s in order to detect any agonist activity of the compounds. Then the cells were stimulated by an EC80 L-AP4 concentration for an additional 110 s in order to measure inhibiting activities of the compounds of the invention. EC80 L-AP4 concentration is the concentration giving 80% of the maximal glutamate response.
The concentration-response curves of L-AP4 or representative compounds of the present invention were generated using the Prism GraphPad software (Graph Pad Inc, San Diego, USA). The curves were fitted to a four-parameter logistic equation: […]
allowing determination of IC50 values.
The Table 3 below represents the mean IC50 obtained from at least three independent experiments of selected molecules performed in duplicate.

T1 sequence (Q14831 35-922 isoform Q14831-2 limits assumed): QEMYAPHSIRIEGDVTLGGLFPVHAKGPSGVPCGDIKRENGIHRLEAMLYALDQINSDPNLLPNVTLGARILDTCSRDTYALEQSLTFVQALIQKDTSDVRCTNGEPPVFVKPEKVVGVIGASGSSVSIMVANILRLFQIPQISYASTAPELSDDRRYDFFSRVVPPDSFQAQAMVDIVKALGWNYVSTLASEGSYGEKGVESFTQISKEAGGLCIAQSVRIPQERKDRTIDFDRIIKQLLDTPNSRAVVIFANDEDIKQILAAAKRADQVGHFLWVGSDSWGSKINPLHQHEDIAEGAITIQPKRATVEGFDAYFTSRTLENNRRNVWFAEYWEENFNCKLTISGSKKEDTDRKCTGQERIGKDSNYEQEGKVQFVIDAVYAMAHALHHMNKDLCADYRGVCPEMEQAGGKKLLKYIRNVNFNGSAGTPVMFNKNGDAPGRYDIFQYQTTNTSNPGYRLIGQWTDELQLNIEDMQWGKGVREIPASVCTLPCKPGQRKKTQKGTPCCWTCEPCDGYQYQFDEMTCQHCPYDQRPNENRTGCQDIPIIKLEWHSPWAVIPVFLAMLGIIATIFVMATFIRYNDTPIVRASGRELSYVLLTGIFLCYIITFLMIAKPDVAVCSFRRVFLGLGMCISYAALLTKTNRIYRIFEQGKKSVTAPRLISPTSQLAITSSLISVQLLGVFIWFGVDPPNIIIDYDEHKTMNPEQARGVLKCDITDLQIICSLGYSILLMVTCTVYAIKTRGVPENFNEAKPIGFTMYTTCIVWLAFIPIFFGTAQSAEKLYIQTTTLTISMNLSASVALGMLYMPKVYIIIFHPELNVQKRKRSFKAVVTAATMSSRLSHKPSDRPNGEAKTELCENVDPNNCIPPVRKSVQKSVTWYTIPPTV

Row | IC50 [nM] | Compound
1 | 100 to 1000 | COc1cccc(-c2ccc3c(=O)n(-c4ccc(NC(=O)[C@@H]5CCCN5)cn4)ncc3c2)c1C [1-99]
2 | 100 to 1000 | COc1cccc(-c2ccc3c(=O)n(-c4cc(C)ccn4)ncc3c2)c1 [1-30]
3 | 100 to 1000 | COc1cccc(-c2ccc3c(=O)n(-c4ccc(NC(=O)[C@@H](N)C(C)C)cn4)ncc3c2)c1C [1-98, (S)-2-Amino-N-(6-(6-(3-methoxy-2-methylphenyl)-1-oxophthalazin-2(1H)-yl)pyridin-3-yl)-3-methylbutanamide hydrochloride]
4 | 1000 to 10000 | O=c1c2ccc(-c3nccc(N4CCC4)n3)cc2cnn1-c1ccccn1 [1-50]
5 | < 100 | Cc1c(OC2CC2)cccc1-c1ccc2c(=O)n(-c3ccccn3)ncc2c1 [1-36]
6 | < 100 | Cc1ccc(-c2ccc3c(=O)n(-c4ccccn4)ncc3c2)c(C)c1 [1-10]
7 | < 100 | O=c1c2ccc(-c3cc(N4CCC4)ccc3F)cc2cnn1-c1ccccn1 [1-52]
8 | < 100 | O=c1c2ccc(-c3cccc(OC(F)F)c3)cc2cnn1-c1ccccn1 [1-38]
9 | 1000 to 10000 | O=c1c2ccc(-c3cc(N4CCC4)ccn3)cc2cnn1-c1ccccn1 [1-53, 6-(4-(Azetidin-1-yl)pyridin-2-yl)-2-(pyridin-2-yl)phthalazin-1(2H)-one]
10 | < 100 | O=c1c2ccc(-c3cccc(N4CCC4)c3)cc2cnn1-c1ccccn1 [1-45]
11 | < 100 | COc1cccc(-c2ccc3c(=O)n(-c4ncccc4F)ncc3c2)c1C [1-58]
12 | < 100 | COc1cccc(-c2ccc3c(=O)n(-c4ncc(N5CCC(O)C5)cn4)ncc3c2)c1C (stereo not shown) [1-65]
13 | 100 to 1000 | O=c1c2ccc(-c3cccc(C4CC4)c3)cc2cnn1-c1ccccn1 [1-22, 6-(3-Cyclopropylphenyl)-2-(pyridin-2-yl)phthalazin-1(2H)-one]
14 | < 100 | COc1cccc(-c2ccc3c(=O)n(-c4ncc(Cl)cn4)ncc3c2)c1C [1-90]

More lines, now with the values behind:

Row | Compound | IC50 [nM]
15 | COc1cccc(-c2ccc3c(=O)n(-c4ncc(N5CCN(C)CC5)cn4)ncc3c2)c1C [1-63] | 100 to 1000
16 | COc1cccc(-c2ccc3c(=O)n(-c4ncc(NCC(C)(C)N(C)C)cn4)ncc3c2)c1C [1-96] | 100 to 1000
17 | COc1nccc(-c2ccc3c(=O)n(-c4ncccn4)ncc3c2)c1F [1-112] | 1000 to 10000
18 | COc1cccc(-c2ccc3c(=O)n(-c4ncc(N5CCC(N(C)C)C5)cn4)ncc3c2)c1C (stereo not shown) [1-101] | 100 to 1000
19 | COc1cccc(-c2ccc3c(=O)n(-c4ncc(N5CCCC(O)C5)cn4)ncc3c2)c1C (stereo not shown) [1-73] | < 100
20 | CCOc1cccc(-c2ccc3c(=O)n(CC)ncc3c2)c1 [1-7] | 100 to 1000
21 | Cc1ccc(-c2ccc3c(=O)n(-c4ccccc4Cl)ncc3c2)c(C)c1 [1-5, 2-(2-Chlorophenyl)-6-(2,4-dimethylphenyl)phthalazin-1(2H)-one] | 100 to 1000
22 | Cc1ccc(-c2ccc3c(=O)n(-c4ccc(S(C)(=O)=O)cc4)ncc3c2)c(C)c1 [1-8, 6-(2,4-Dimethylphenyl)-2-(4-(methylsulfonyl)phenyl)phthalazin-1(2H)-one] | 100 to 1000
23 | COc1cccc(-c2ccc3c(=O)n(-c4ncc(N5CCSCC5)cn4)ncc3c2)c1C [1-78] | 100 to 1000
24 | CN1CCc2c(-c3ccc4c(=O)n(-c5ncccn5)ncc4c3)cccc21 [1-44] | < 100
25 | CNCCNc1cnc(-n2ncc3cc(-c4cccc(OC)c4C)ccc3c2=O)nc1 [1-105] | 100 to 1000
26 | COCCNc1cnc(-n2ncc3cc(-c4cccc(OC)c4C)ccc3c2=O)nc1 [1-79] | < 100
27 | CCn1ncc2cc(-c3ccc(C)cc3C)ccc2c1=O [1-1, 6-(2,4-Dimethylphenyl)-2-ethylphthalazin-1(2H)-one] | 100 to 1000
28 | Cc1ccc(-c2ccc3c(=O)n(-c4ccncc4)ncc3c2)c(C)c1 [1-18] | 100 to 1000
29 | O=c1c2ccc(-c3cccc(N4CCC4)c3)cc2cnn1-c1ncc(F)cn1 [1-76] | < 100
30 | COc1cccc(-c2ccc3c(=O)n(-c4ncc(NCC(C)(C)O)cn4)ncc3c2)c1C [1-88] | < 100
31 | CCn1ncc2cc(-c3cccc(N(C)C)c3)ccc2c1=O [1-6] | 100 to 1000
32 | CC(=O)c1ccc(-n2ncc3cc(-c4ccc(C)cc4C)ccc3c2=O)cc1 [1-12] | 100 to 1000
33 | CCn1ncc2cc(-c3cccc(N4CCC4)c3)ccc2c1=O [1-11, 6-(3-(Azetidin-1-yl)phenyl)-2-ethylphthalazin-1(2H)-one] | < 100

test system: not given; test: not given; details: not given

Row | melting point [°C] | Compound
34 | 181 to 184 | O=c1c2ccc(-c3cccc(C4CC4)c3)cc2cnn1-c1ccccn1 [1-22, 6-(3-Cyclopropylphenyl)-2-(pyridin-2-yl)phthalazin-1(2H)-one]
